Where two headings read alike, the source gives them in different places.
How the values were obtained:
Experiment in all cases: MIC, broth microdilution (CLSI), substance alone or ATB combined with compound at 4 or 8 μg/mL
[1] = test system: ECL P99; assay type: cell-based, E. cloacae; settings: ECL P99; for MIC: Enterobacter cloacae
In short: (§1)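 Broth microdilution; ca-MHB; 5·10^5 CFU/mL; 35° C, 16-20 h; compound alone or fixed 4/8 μg/mL with antibiotic series; endpoint = no visible growth.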

[2] = test system: PAE 105250; assay type: cell-based, P. aeruginosa; settings: PAE 105250
In short: as §1

[3] = test system: PAE UFR48; assay type: cell-based, P. aeruginosa; settings: PAE UFR48
In short: as §1

[4] = test system: PAE UFR90; assay type: cell-based, P. aeruginosa; settings: PAE UFR90
In short: as §1

[5] = test system: SAU 29213; assay type: cell-based, S. aureus; settings: SAU 29213
In short: as §1

[6] = test system: SPN 49619; assay type: cell-based, S. pneumoniae; settings: SPN 49619
In short: as §1

[7] = Pseudomonas aeruginosa, antibiotic alone, read-out: MIC ATB alone

SMILES: CO/N=C(\C(=O)N[C@@H]1C(=O)N2C(C(=O)O)=C(COC(N)=O)CS[C@H]12)c1ccco1 [FUR, Cefuroxime, reference compound]
- MIC ATB combined with Example 9 @4 μg/ml ([1]; with Example 9 at 4 μg/ml): <0.031 µg/mL
- MIC ATB combined with Example 11 @8 μg/ml ([1]; with Example 11 at 8 μg/ml): <0.031 µg/mL
- MIC ATB combined with Example 12 @8 μg/ml ([1]; with Example 12 at 8 μg/ml): <0.031 µg/mL
- MIC ATB combined with Example 13 @8 μg/ml ([1]; with Example 13 at 8 μg/ml): 16 µg/mL
- MIC ATB combined with Example 14 @8 μg/ml ([1]; with Example 14 at 8 μg/ml): <0.031 µg/mL
- MIC ATB combined with Example 15 @4 μgml ([1]; with Example 15 at 4 μg/ml): <0.031 µg/mL
- MIC ATB combined with Example 16 @4 μg/ml ([1]; with Example 16 at 4 μg/ml): <0.031 µg/mL
- MIC ([1]; antibiotic alone, read-out: MIC ATB alone): > 512 µg/mL
- MIC ([1]; substance alone, read-out: MIC): > 512 µg/mL
- MIC ATB combined with Example 1 @8 μg/ml ([2]; with Example 1 @8 μg/ml): <0.031 µg/mL
- MIC ATB combined with Example 1 @8 μg/ml ([2]; with Example 1 at 8 μg/ml): <0.031 µg/mL
- MIC ATB combined with Example 7 @8 μgml ([2]; with Example 7 at 8 μg/ml): >32 µg/mL
- MIC ATB combined with Example 9 @4 μg/ml ([2]; with Example 9 @4 μg/ml): >32 µg/mL
- MIC ATB combined with Example 9 @4 μg/ml ([2]; with Example 9 at 4 μg/ml): >32 µg/mL
- MIC ATB combined with Example 11 @8 μg/ml ([2]; with Example 11 at 8 μg/ml): >32 µg/mL
- MIC ATB combined with Example 12 @8 μg/ml ([2]; with Example 12 at 8 μg/ml): >32 µg/mL
- MIC ATB combined with Example 13 @8 μg/ml ([2]; with Example 13 at 8 μg/ml): >32 µg/mL
- MIC ATB combined with Example 14 @8 μg/ml ([2]; with Example 14 at 8 μg/ml): >32 µg/mL
- MIC ATB combined with Example 15 @4 μgml ([2]; with Example 15 at 4 μg/ml): >32 µg/mL
- MIC ATB combined with Example 16 @4 μg/ml ([2]; with Example 16 at 4 μg/ml): >32 µg/mL
- MIC [2, 7]: > 512 µg/mL
- MIC ATB combined with Example 1 @8 μg/ml ([3]; with Example 1 @8 μg/ml): <0.031 µg/mL
- MIC ATB combined with Example 1 @8 μg/ml ([3]; with Example 1 at 8 μg/ml): <0.031 µg/mL
- MIC ATB combined with Example 7 @8 μgml ([3]; with Example 7 at 8 μg/ml): >32 µg/mL
- MIC ATB combined with Example 9 @4 μg/ml ([3]; with Example 9 @4 μg/ml): >32 µg/mL
- MIC ATB combined with Example 9 @4 μg/ml ([3]; with Example 9 at 4 μg/ml): >32 µg/mL
- MIC ATB combined with Example 11 @8 μg/ml ([3]; with Example 11 at 8 μg/ml): >32 µg/mL
- MIC ATB combined with Example 12 @8 μg/ml ([3]; with Example 12 at 8 μg/ml): >32 µg/mL
- MIC ATB combined with Example 13 @8 μg/ml ([3]; with Example 13 at 8 μg/ml): >32 µg/mL
- MIC ATB combined with Example 14 @8 μg/ml ([3]; with Example 14 at 8 μg/ml): >32 µg/mL
- MIC ATB combined with Example 15 @4 μgml ([3]; with Example 15 at 4 μg/ml): >32 µg/mL
- MIC ATB combined with Example 16 @4 μg/ml ([3]; with Example 16 at 4 μg/ml): >32 µg/mL
- MIC [3, 7]: > 32 µg/mL
- MIC ATB combined with Example 1 @8 μg/ml ([4]; with Example 1 @8 μg/ml): <0.031 µg/mL
- MIC ATB combined with Example 1 @8 μg/ml ([4]; with Example 1 at 8 μg/ml): <0.031 µg/mL
- MIC ATB combined with Example 7 @8 μgml ([4]; with Example 7 at 8 μg/ml): >32 µg/mL
- MIC ATB combined with Example 9 @4 μg/ml ([4]; with Example 9 @4 μg/ml): >32 µg/mL
- MIC ATB combined with Example 9 @4 μg/ml ([4]; with Example 9 at 4 μg/ml): >32 µg/mL
- MIC ATB combined with Example 11 @8 μg/ml ([4]; with Example 11 at 8 μg/ml): >32 µg/mL
- MIC ATB combined with Example 12 @8 μg/ml ([4]; with Example 12 at 8 μg/ml): >32 µg/mL
- MIC ATB combined with Example 13 @8 μg/ml ([4]; with Example 13 at 8 μg/ml): >32 µg/mL
- MIC ATB combined with Example 14 @8 μg/ml ([4]; with Example 14 at 8 μg/ml): >32 µg/mL
- MIC ATB combined with Example 15 @4 μgml ([4]; with Example 15 at 4 μg/ml): >32 µg/mL
- MIC ATB combined with Example 16 @4 μg/ml ([4]; with Example 16 at 4 μg/ml): >32 µg/mL
- MIC [4, 7]: > 32 µg/mL
- MIC ATB combined with Example 1 @8 μg/ml ([5]; with Example 1 @8 μg/ml): 1 µg/mL
- MIC ATB combined with Example 1 @8 μg/ml ([5]; with Example 1 at 8 μg/ml): 1 µg/mL
- MIC ATB combined with Example 7 @8 μgml ([5]; with Example 7 at 8 μg/ml): 1 µg/mL
- MIC ATB combined with Example 9 @4 μg/ml ([5]; with Example 9 @4 μg/ml): <0.031 µg/mL
- MIC ATB combined with Example 9 @4 μg/ml ([5]; with Example 9 at 4 μg/ml): <0.031 µg/mL
- MIC ATB combined with Example 11 @8 μg/ml ([5]; with Example 11 at 8 μg/ml): <0.031 µg/mL
- MIC ATB combined with Example 12 @8 μg/ml ([5]; with Example 12 at 8 μg/ml): <0.031 µg/mL
- MIC ATB combined with Example 13 @8 μg/ml ([5]; with Example 13 at 8 μg/ml): 1 µg/mL
- MIC ATB combined with Example 14 @8 μg/ml ([5]; with Example 14 at 8 μg/ml): <0.031 µg/mL
- MIC ATB combined with Example 15 @4 μgml ([5]; with Example 15 at 4 μg/ml): <0.031 µg/mL
- MIC ATB combined with Example 16 @4 μg/ml ([5]; with Example 16 at 4 μg/ml): <0.031 µg/mL
- MIC ([5]; Staphylococcus aureus, antibiotic alone, read-out: MIC ATB alone): 2 µg/mL
- MIC ATB combined with Example 1 @8 μg/ml ([6]; with Example 1 @8 μg/ml): 0.25 µg/mL
- MIC ATB combined with Example 1 @8 μg/ml ([6]; with Example 1 at 8 μg/ml): 0.25 µg/mL
- MIC ATB combined with Example 7 @8 μgml ([6]; with Example 7 at 8 μg/ml): 0.25 µg/mL
- MIC ATB combined with Example 9 @4 μg/ml ([6]; with Example 9 @4 μg/ml): <=0.031 μg/mL
- MIC ATB combined with Example 9 @4 μg/ml ([6]; with Example 9 at 4 μg/ml): <=0.031 μg/mL
- MIC ATB combined with Example 11 @8 μg/ml ([6]; with Example 11 at 8 μg/ml): 0.063 µg/mL
- MIC ATB combined with Example 12 @8 μg/ml ([6]; with Example 12 at 8 μg/ml): <0.031 µg/mL
- MIC ATB combined with Example 13 @8 μg/ml ([6]; with Example 13 at 8 μg/ml): 0.25 µg/mL
- MIC ATB combined with Example 14 @8 μg/ml ([6]; with Example 14 at 8 μg/ml): <0.031 µg/mL
- MIC ATB combined with Example 15 @4 μgml ([6]; with Example 15 at 4 μg/ml): <0.031 µg/mL
- MIC ATB combined with Example 16 @4 μg/ml ([6]; with Example 16 at 4 μg/ml): <0.031 µg/mL
- MIC ([6]; Streptococcus pneumoniae, antibiotic alone, read-out: MIC ATB alone): 0.25 µg/mL
